Structures can show the parent of a compound that is named as a salt. Each block holds one molecule with its values, some of them ahead of it.
What was measured:
[1] = tested on: MDCK-MDR1 cells; assay: Co-administration assay with doxorubicin (MTT), MDCK-MDR1 cells; type: cell-based, canine; details: 10 µM, MDCK cells overexpressing P-gp
Procedure: The co-administration assay with doxorubicin was performed in MDCK-MDR1, HT29, HT29/DX, A549 and A549/DX cells at 48 h. On day 1, 10,000 cells/well were seeded into 96-well plates in a volume of 100 µL of fresh medium. On day 2, the tested drug was added alone to the cells at different concentrations (ranging from 40 nM to 10 µM). On day 3, the medium was removed and the drug at the same concentrations was added alone and in co-administration with 10 µM doxorubicin to the cells. After the established incubation time with the tested drug, MTT (0.5 mg/mL) was added to each well, and after 3 − 4 h incubation at 37 °C, the supernatant was removed. The formazan crystals were solubilised using 100 µL of DMSO/EtOH (1:1), and the absorbance values at 570 and 630 nm were determined on the microplate reader HTX Synergy (Bio-Tek Instruments).

[2] = target: T1, P-gp (Homo sapiens, UniProt P08183); assay: Inhibition of Calcein-AM transport in MDCK-MDR1 cells; type: cell-based; details: Calcein-AM, MDCK-MDR1 cells; mean ± SEM of two experiments
T1 construct: expressed in transfected cells; host or cells: MDCK-MDR1 (Madin-Darby Canine Kidney cells, gift of Prof. P. Borst, NKI-AVL)
T1 sequence (P08183 whole entry): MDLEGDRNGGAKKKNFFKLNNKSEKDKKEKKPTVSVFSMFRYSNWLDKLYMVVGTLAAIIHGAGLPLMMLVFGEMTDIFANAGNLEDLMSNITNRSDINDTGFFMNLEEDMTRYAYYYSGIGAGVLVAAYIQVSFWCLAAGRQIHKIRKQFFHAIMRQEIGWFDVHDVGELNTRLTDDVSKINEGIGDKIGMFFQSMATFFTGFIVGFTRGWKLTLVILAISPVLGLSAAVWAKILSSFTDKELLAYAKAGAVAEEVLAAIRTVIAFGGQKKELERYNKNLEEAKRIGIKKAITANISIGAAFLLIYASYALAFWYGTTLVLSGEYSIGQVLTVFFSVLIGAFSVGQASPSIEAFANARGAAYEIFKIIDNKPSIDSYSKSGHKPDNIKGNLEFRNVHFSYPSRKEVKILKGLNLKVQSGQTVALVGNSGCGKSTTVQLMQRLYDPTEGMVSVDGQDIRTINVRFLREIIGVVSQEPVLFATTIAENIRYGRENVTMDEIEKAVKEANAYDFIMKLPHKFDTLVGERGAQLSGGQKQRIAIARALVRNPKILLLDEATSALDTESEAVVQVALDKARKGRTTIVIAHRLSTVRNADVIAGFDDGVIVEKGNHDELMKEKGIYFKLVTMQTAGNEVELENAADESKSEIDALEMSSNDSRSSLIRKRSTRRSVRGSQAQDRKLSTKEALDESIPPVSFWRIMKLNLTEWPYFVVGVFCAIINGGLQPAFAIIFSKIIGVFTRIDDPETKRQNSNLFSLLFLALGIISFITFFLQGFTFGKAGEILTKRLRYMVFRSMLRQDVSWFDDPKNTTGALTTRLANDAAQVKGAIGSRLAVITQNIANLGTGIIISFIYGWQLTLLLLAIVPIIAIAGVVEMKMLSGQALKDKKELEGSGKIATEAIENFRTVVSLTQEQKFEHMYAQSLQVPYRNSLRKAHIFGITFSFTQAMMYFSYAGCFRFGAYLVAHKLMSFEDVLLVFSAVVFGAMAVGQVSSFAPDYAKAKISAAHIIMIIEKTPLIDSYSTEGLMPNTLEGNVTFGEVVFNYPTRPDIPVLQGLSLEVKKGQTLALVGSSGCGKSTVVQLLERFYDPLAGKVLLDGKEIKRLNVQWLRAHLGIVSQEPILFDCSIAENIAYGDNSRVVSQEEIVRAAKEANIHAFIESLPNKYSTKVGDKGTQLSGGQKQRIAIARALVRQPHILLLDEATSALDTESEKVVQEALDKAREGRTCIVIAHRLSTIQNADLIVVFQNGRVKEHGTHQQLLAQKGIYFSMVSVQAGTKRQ
Procedure: These experiments were carried out as previously described by Teodori et al. with minor modifications. Each cell line (30 000 cells per well) was seeded into black CulturePlate 96/wells plate with 100 µL medium and allowed to become confluent overnight. 100 µL of test compounds were solubilised in culture medium and added to monolayers, with final concentrations ranging from 1 nM to 100 µM. 96/Wells plate was incubated for 30 min in a humidified atmosphere 5% CO2 at 37 °C. Calcein-AM was added in 100 µL of Phosphate Buffered Saline (PBS) to yield a final concentration of 2.5 µM and plate was incubated for 30 min in a humidified atmosphere 5% CO2 at 37 °C. Each well was washed 3 times with ice cold PBS. Saline buffer was added to each well and the plate was read with Victor3 (PerkinElmer) at excitation and emission wavelengths of 485 and 535 nm, respectively. In these experimental conditions, Calcein cell accumulation in the absence and in the presence of tested compounds was evaluated and fluorescence basal level was estimated with untreated cells. In treated wells the increase of fluorescence with respect to basal level was measured. EC50 values were determined by fitting the fluorescence increase percentage versus log[dose].
The interaction potency between the designed compounds and P-gp was evaluated by measuring the transport inhibition of the pro-fluorescent probe Calcein-AM, that is a P-gp substrate, in a cell line overexpressing P-gp (MDCK-MDR1)[47]. The P-gp interacting profile was further investigated with two other assays: the Apparent Permeability (Papp) determination (BA/AB) in Caco-2 cell monolayer[48]^,[49], and the ATP cell depletion in the MDCK-MDR1 cell line[50]. […] Papp determination measures the ratio between two fluxes: from the basolateral to apical compartments (BA, representative of passive diffusion) and from the apical to basolateral compartments (AB, representative of active transport). […] In the same manner, if (BA/AB) >2, the compound should probably be classified as a substrate.

[3] = target: T1, P-gp; assay: ATP cell depletion (ATPlite assay) in MDCK-MDR1 cells; type: cell-based; details: Yes/No
Procedure: The MDCK-MDR1 cells were seeded into 96-well microplate in 100 µL of complete medium at a density 20,000 cells per well. The plate was incubated overnight (O/N) in a humidified atmosphere 5% CO2 at 37 °C. The medium was removed and 100 µL of complete medium either alone or containing different concentrations (ranging from 1 to 100 µM) of test compounds was added. The plate was incubated for 2 h in a humidified 5% CO2 atmosphere at 37 °C. 50 µL of mammalian cell lysis solution was added to all wells and the plate shacked for five minutes in an orbital shaker. 50 µL of substrate solution was added to all wells and the plate shacked for five minutes in an orbital shaker. The plate was dark adapted for ten minutes and the luminescence was measured.
(§1) The interaction potency between the designed compounds and P-gp was evaluated by measuring the transport inhibition of the pro-fluorescent probe Calcein-AM, that is a P-gp substrate, in a cell line overexpressing P-gp (MDCK-MDR1)[47]. The P-gp interacting profile was further investigated with two other assays: the Apparent Permeability (Papp) determination (BA/AB) in Caco-2 cell monolayer[48]^,[49], and the ATP cell depletion in the MDCK-MDR1 cell line[50]. Taking into account the results of the combined tests, an interacting compound can be classified as substrate or inhibitor. Papp determination measures the ratio between two fluxes: from the basolateral to apical compartments (BA, representative of passive diffusion) and from the apical to basolateral compartments (AB, representative of active transport). […] In the same manner, if (BA/AB) >2, the compound should probably be classified as a substrate. […] The selectivity of ligands 1–26 was evaluated by detecting their activity towards the other ABC transporters MRP1 and BCRP, by measuring the inhibition of the efflux of Calcein-AM (i.e., also a MRP1 substrate) in cells overexpressing MRP1 (MDCK-MRP1 cells), and the inhibition of the efflux of the fluorescent probe Hoechst 33342 (i.e. a BCRP substrate) in cells overexpressing BCRP (MDCK-BCRP cells), respectively.

[4] = Apparent permeability (Papp) determination (BA/AB) in Caco-2 cell monolayer; type: in vitro ADME; details: human, Caco-2 monolayer
Procedure: Caco-2 cells were seeded onto a Millicell® assay system (Millipore), where a cell monolayer is set in between a filter cell and a receiver plate, at a density of 10 000 cells/well[46]. The culture medium was replaced every 48 h and the cells kept for 21 days in culture. The Trans Epithelial Electrical Resistance (TEER) of the monolayers was measured daily, before and after the experiment, using an epithelial volt-ohmmeter (Millicell®-ERS). Generally, TEER values greater than 1000 Ω for a 21 days culture, are considered optimal.
After 21 days of Caco-2 cell growth, the medium was removed from filter wells and from the receiver plate, which were filled with fresh HBSS buffer (Invitrogen). This procedure was repeated twice, and the plates were incubated at 37 °C for 30 min. After incubation time, the HBSS buffer was removed and drug solutions and reference compounds were added to the filter well at the concentration of 100 µM, while fresh HBSS was added to the receiver plate. The plates were incubated at 37 °C for 120 min. Afterwards, samples were removed from the apical (filter well) and basolateral (receiver plate) side of the monolayer to measure the permeability.
as §1

[5] = Stability test in human plasma (LC-MS/MS); type: in vitro ADME; details: human, human plasma, 1 µM, 37 °C
Procedure: (§2) Each sample was prepared adding 10 µL of working solution 1 to 100 µL of tested matrix (PBS or human plasma) in micro centrifuge tubes. The obtained solutions correspond to 1 µM of analyte.
After the incubation, the samples were added with 300 µL of ISTD solution and centrifuged (room temperature for 5 min at 10,000 rpm). The supernatants were transferred in auto sampler vials and dried under a gentle stream of nitrogen.
(§3) The dried samples were dissolved in 1.0 ml of 10 mM of formic acid in mQ water: acetonitrile 80:20 solution. The obtained sample solutions were analysed by LC-MS/MS methods described in Supplementary material.
(§4) For this purpose, a series of experiments were carried out, adding a known amount of analyte in both phosphate buffer solution (PBS) and in human plasma. The samples were analysed by LC-MS/MS method operating in Multiple Reaction Monitoring (MRM) mode[55].
The analyte concentration (1 µM) used during the stability tests is generally smaller than the corresponding Michaelis–Menten constant (KM); therefore, the enzymatic degradation rate is described by a first-order kinetic. Then, by plotting the natural logarithm of the quantitative data versus the incubation time, a linear function can be used and its slope represents the degradation rate (k).

[6] = Stability test in phosphate buffer solution (PBS); type: physicochemical; details: 1 µM, 37 °C, up to 120 min
Procedure: as §2
Each set of samples was incubated in triplicate at four different times, 0, 30, 60 and 120 min at 37 °C. Therefore, the degradation profile of each analyte was represented by a batch of 12 samples (4 incubation times × 3 replicates). After the incubation, the samples were added with 300 µL of ISTD solution and centrifuged (room temperature for 5 min at 10,000 rpm). The supernatants were transferred in auto sampler vials and dried under a gentle stream of nitrogen.
as §3
as §4, with “Due to the presence of ester or amide groups in the structure of compounds 1–26, a study aimed to evaluate their susceptibility to spontaneous or enzymatic hydrolysis, was planned. For” for “For”, “mode[55]. […]” for “mode[55].”

[7] = target: T2, BCRP (Homo sapiens, UniProt Q9UNQ0); assay: Inhibition of Hoechst 33342 efflux in MDCK-BCRP cells; type: cell-based; details: Hoechst 33342, MDCK-BCRP cells; NA: not active
T2 construct: expressed in transfected cells; host or cells: MDCK-BCRP (Madin-Darby Canine Kidney cells, gift of Prof. P. Borst, NKI-AVL)
T2 sequence (Q9UNQ0 1-655): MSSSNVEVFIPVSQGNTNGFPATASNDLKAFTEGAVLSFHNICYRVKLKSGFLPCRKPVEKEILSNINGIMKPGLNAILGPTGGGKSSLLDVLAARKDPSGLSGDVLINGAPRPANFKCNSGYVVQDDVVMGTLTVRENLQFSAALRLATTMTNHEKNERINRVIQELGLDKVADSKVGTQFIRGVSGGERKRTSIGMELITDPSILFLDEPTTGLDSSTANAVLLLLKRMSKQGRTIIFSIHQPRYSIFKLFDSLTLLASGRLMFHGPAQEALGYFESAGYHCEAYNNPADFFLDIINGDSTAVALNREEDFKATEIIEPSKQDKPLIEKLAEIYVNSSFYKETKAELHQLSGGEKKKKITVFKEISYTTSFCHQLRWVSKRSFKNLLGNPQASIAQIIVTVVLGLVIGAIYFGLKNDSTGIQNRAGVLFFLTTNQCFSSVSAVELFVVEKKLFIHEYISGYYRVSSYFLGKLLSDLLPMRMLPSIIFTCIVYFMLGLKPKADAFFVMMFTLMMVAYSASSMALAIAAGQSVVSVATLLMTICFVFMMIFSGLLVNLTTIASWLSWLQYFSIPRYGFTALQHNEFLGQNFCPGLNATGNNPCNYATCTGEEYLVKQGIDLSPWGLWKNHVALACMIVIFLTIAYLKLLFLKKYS
Procedure: These experiments were carried out as described by Teodori et al.[34]. Each cell line (30 000 cells per well) was seeded into black CulturePlate 96/wells plate with 100 µL medium and allowed to become confluent overnight. 100 µL of test compounds were solubilised in culture medium and added to monolayers, with final concentrations ranging from 1 to 100 µM. 96/Wells plate was incubated for 30 min in a humidified atmosphere 5% CO2 at 37 °C. Hoechst 33342 was added in 100 µl of phosphate-buffered saline (PBS) to yield a final concentration of 8 µM and plate was incubated for 30 min in a humidified atmosphere 5% CO2 at 37 °C. The supernatants were drained, and the cells were fixed for 20 min under light protection using 100 µL per well of a 4% PFA solution. Each well was washed three times with ice cold PBS. Saline buffer was added to each well and the plate was read with Victor3 (PerkinElmer) at excitation and emission wavelengths of 340/35 nm and 485/20 nm, respectively. In these experimental conditions, Hoechst 33342 accumulation in the absence and in the presence of tested compounds was evaluated and fluorescence basal level was estimated with untreated cells. In treated wells, the increase of fluorescence with respect to basal level was measured. EC50 values were determined by fitting the fluorescence increase percentage versus log[dose]. […]

Compound: COc1ccc2nccc(C(=O)Nc3ccc(CCN4CCc5cc(OC)c(OC)cc5C4)cc3)c2c1 (as salt: hydrochloride) [Compound 13, N-(4–(2-(6,7-dimethoxy-3,4-dihydroisoquinolin-2(1H)-yl)ethyl)phenyl)-6-methoxyquinoline-4-carboxamide]
melting point: 228 to 230 °C

Compound: COc1cccc2c1C(=O)c1c(O)c3c(c(O)c1C2=O)C[C@@](O)(C(=O)CO)C[C@@H]3O[C@H]1C[C@H](N)[C@H](O)[C@H](C)O1 [doxorubicin, reference compound]
cytotoxicity of doxorubicin alone [1]: did not show cytotoxicity

Compound: COc1cncc(C(=O)Oc2ccc(CCN3CCc4cc(OC)c(OC)cc4C3)cc2)n1 [Compound 25, 4–(2-(6,7-Dimethoxy-3,4-dihydroisoquinolin-2(1H)-yl)ethyl)phenyl 6-methoxypyrazine-2-carboxylate]
EC50 [2]: 220 ± 40 nM | ATP cell depletion [3]: No | efflux ratio at 120 min, 100 µM [4]: 4.7 | half-life at 1 µM [5]: ~6 min | stability in PBS [6]: unmodified

Compound: COc1cc2c(cc1OC)CN(CCc1ccc(NC(=O)c3cc(OC)c(OC)cc3NC(=O)c3cnc4ccccc4c3)cc1)CC2 [tariquidar, reference compound]
EC50 [2]: 44 ± 1 nM | EC50 [7]: 10 ± 5 nM | ATP cell depletion [3]: Yes^f | efflux ratio at 120 min, 100 µM [4]: > 20

Next, values leading:

melting point: 212 to 214 °C
Compound: COc1cc2c(cc1OC)CN(CCc1ccc(NC(=O)c3c(OC)cccc3OC)cc1)CC2 (as salt: hydrochloride) [Compound 4, N-(4–(2-(6,7-dimethoxy-3,4-dihydroisoquinolin-2(1H)-yl)ethyl)phenyl)-2,6-dimethoxybenzamide]

melting point: 245 to 248 °C
Compound: COc1cc2c(cc1OC)CN(CCc1ccc(NC(=O)c3c(OC)c(OC)cc4ccccc34)cc1)CC2 (as salt: hydrochloride) [Compound 8, N-(4–(2-(6,7-dimethoxy-3,4-dihydroisoquinolin-2(1H)-yl)ethyl)phenyl)-2,3-dimethoxy-1-naphthamide]

melting point: 239 to 241 °C
Compound: COc1cc2c(cc1OC)CN(CCc1ccc(NC(=O)c3c(OC)ccc4ccccc34)cc1)CC2 (as salt: hydrochloride) [Compound 7, N-(4–(2-(6,7-dimethoxy-3,4-dihydroisoquinolin-2(1H)-yl)ethyl)phenyl)-2-methoxy-1-naphthamide]

Source: publication PMC7178819, “6,7-Dimethoxy-2-phenethyl-1,2,3,4-tetrahydroisoquinoline amides and corresponding ester isosteres as multidrug resistance reversers” (Journal of Enzyme Inhibition and Medicinal Chemistry, 2020)
